Literature values in patent US8986736B2, “Method for delivering particulate drugs to tissues” (Baxter International Inc., priority 2003, dated 2015).

System: HIV-infected macrophages

CC(C)(C)NC(=O)[C@@H]1C[C@@H]2CCCC[C@@H]2CN1C[C@@H](O)[C@H](Cc1ccccc1)NC(=O)[C@H](CC(N)=O)NC(=O)c1ccc2ccccc2n1 [saquinavir]
activity in chronically HIV-infected macrophages (100 nM, in solution): completely inactive
antiviral activity (aqueous solution, HIV-infected macrophages): little antiviral activity
